Numbers after ± are expanded uncertainties.

A short description of this data set: molar enthalpy of vaporization or sublimation. To be noted: 298.15 K; Crystal; microcalorimetry.

In the case of `Brc1ccc2[nH]ccc2c1` [1H-indole, 5-bromo-], the molar enthalpy was determined as 22.1 ± 1.1 kcal/mol. As to `Brc1ccc2c(c1)CCN2` [5-Bromoindoline], the molar enthalpy was found to be 21 ± 0.908 kcal/mol.

For the origin of these results see the NIST ThermoML archive (doi:10.1016/j.jct.2008.07.016).
